# Entries after “also recorded” stand apart in the source; their conditions may differ.
# What was measured:
# Type in all cases: in vivo, human
# [1] = Phase 1 open-label multidose pharmacokinetic study of IPE, EPA in plasma and RBCs by LC-MS/MS
# Description: A study to characterize the pharmacokinetics of ethyl eicosapentaenoate in plasma and red blood cells after multiple-dose administration of IPE at 2 g per day and 4 g per day was performed in healthy adult male and female humans.
# The study was a phase 1, open-label, randomized, multidose study in healthy, nonsmoking men and women aged >18 and ≦55 years with a body mass index (BMI)>18 and ≦30 kg/m^2. Exclusion criteria included use within 6 weeks prior to randomization through study end of any lipid-altering medications or supplements, including statins, niacin at levels of greater than 200 mg/day, fibrates, ezetimibe, bile acid sequestrants, omega-3 fatty acid medications, and supplements or foods enriched with omega-3 fatty acids (no more than 2 servings of fish per week were permitted).
# Following a 14-day screening period, subjects entered a 28-day treatment period and were randomized to one of four IPE dose regimen treatment groups as shown in FIG. 1. Group 1 received IPE 2 g daily (1000-mg capsules; twice-daily [BID] regimen); Group 2 received IPE 4 g daily (1000-mg capsules; BID regimen); Group 3 received IPE 2 g daily (1000-mg capsules; once-daily [QD] regimen); and Group 4 received IPE 2 g daily (500-mg capsules; BID regimen). Treatment was administered orally, with or following a meal in the morning and evening for BID regimens, or in the morning only for the QD regimen. Subjects then entered an 18-day post-treatment pharmacokinetic sampling period.
# The safety population was defined as all randomized subjects who received at least one dose of study drug. […]
# Fasting EPA concentrations were measured with a validated liquid chromatography with tandem mass spectrometry (LC-MS/MS) method in plasma and RBCs prior to the morning dose (days 1, 14, 26, 28) and at serial time points (1, 3, 5, 6, 8, 10, 12, 24, 48, 72, 120, 192, 312, and 432 hours) after the morning dose on day 28. […] In RBCs, EPA was measured in the cell membrane, where EPA is mainly incorporated in phospholipids.
# For total EPA in plasma and RBCs, lipids were isolated by acid/methanol/chloroform extraction followed by centrifugation and purified by isohexane and solid-phase extraction after confirmed complete lipid hydrolysis and transmethylation (acid/methanol, 50° C. overnight). […] Quantitation utilized linolenic acid as an internal standard and EPA as the standard for the calibration curve; for total plasma EPA, RBC EPA, and unesterified EPA, the lower limits of quantitation were 10 μg/mL, 5 μg/mL, and 50 ng/mL, respectively. EPA concentrations were measured at Charles River Laboratories Ltd (Elphinstone Research Center, Tranent, Edinburgh, Scotland, UK). […]
# [2] = tested on: inflammation-associated end points (ICAM-1, Ox-LDL, Lp-PLA2, IL-6, hsCRP); assay: MARINE study, inflammation-associated end points (ITT); conditions: for ICAM-1 change from baseline / ICAM-1 end-of-treatment value / IL-6 change from baseline / IL-6 end-of-treatment value / Lp-PLA2 change from baseline / Lp-PLA2 end-of-treatment value / Ox-LDL change from baseline / Ox-LDL end-of-treatment value / hsCRP change from baseline / hsCRP end-of-treatment value: median
# Source text: A summary of baseline values, end-of-treatment values, and median placebo-adjusted percent change from baseline to study end of inflammation-associated end points in each of the three ITT sub-populations is shown in Table 5. […]
# [3] = tested on: inflammation-associated end points (ICAM-1, Ox-LDL, Lp-PLA2, IL-6, hsCRP); assay: ANCHOR study, inflammation-associated end points (ITT); conditions: for ICAM-1 median placebo-adjusted % change from baseline / IL-6 median placebo-adjusted % change from baseline / Lp-PLA2 median placebo-adjusted % change from baseline / Ox-LDL median placebo-adjusted % change from baseline / hsCRP median placebo-adjusted % change from baseline: week 12; for ICAM-1 change from baseline / ICAM-1 end-of-treatment value / IL-6 change from baseline / IL-6 end-of-treatment value / Lp-PLA2 change from baseline / Lp-PLA2 end-of-treatment value / Ox-LDL change from baseline / Ox-LDL end-of-treatment value / hsCRP change from baseline / hsCRP end-of-treatment value: week 12, on statin, median
# Description: A multi-center, placebo-controlled, randomized, double-blind, 12-week study was performed to evaluate the efficacy and safety of >96% E-EPA in patients with fasting triglyceride levels ≧200 mg/dl and <500 mg/dl despite statin therapy (the mean of two qualifying entry values needed to be ≧185 mg/dl and at least one of the values needs to be ≧200 mg/dl). The primary objective of the study was to determine the efficacy of >96% E-EPA 2 g daily and 4 g daily, compared to placebo, in lowering fasting TG levels in patients with high risk for cardiovascular disease and with fasting TG levels ≧200 mg/dL and <500 mg/dL, despite treatment to LDL-C goal on statin therapy.
# The population for this study was men and women >18 years of age with a body mass index ≦45 kg/m^2 with fasting TG levels greater than or equal to 200 mg/dl and less than 500 mg/dl and on a stable does of statin therapy (with or without ezetimibe). The statin must have been atorvostatin, rosuvastatin or simvastatin. The dose of statin must have been stable for ≧4 weeks prior to the LDL-C/TG baseline qualifying measurement for randomization. The statin dose was optimal such that the patients are at their LDL-C goal at the LDL-C/TG baseline qualifying measurements. The same statin at the same dose was continued until the study ended.
# Approximately 648 patients were randomized at approximately 80 centers in the U.S. The study was a 18- to 20-week, Phase 3, multi-center study consisting of 2 study periods: (1) A 6- to 8-week screening period that included a diet and lifestyle stabilization, a non-statin lipid-altering treatment washout, and an LDL-C and TG qualifying period and (2) A 12-week, double-blind, randomized, placebo-controlled treatment period.
# After confirmation of qualifying fasting LDL-C and TG values, eligible patients entered a 12-week, randomized, double-blind treatment period. At Visit 4 (Week 0), patients were randomly assigned to 1 of the following treatment groups: • >96% E-EPA 2 g daily, • >96% E-EPA 4 g daily, or • Placebo.
# >96% E-EPA was provided in 1 g liquid-filled, oblong, gelatin capsules. The matching placebo capsule was filled with light liquid paraffin and contains 0 g of >96% E-EPA. >96% E-EPA capsules were to be taken with food (i.e. with or at the end of a meal).
# The primary efficacy variable for the double-blind treatment period was percent change in TG from baseline to Week 12 endpoint. The secondary efficacy variables for the double-blind treatment period included the following: • Percent changes in total cholesterol (TC), high-density lipoprotein cholesterol (HDL-C), LDL-C, calculated non-HDL-C, and very low-density lipoprotein cholesterol (VLDL-C) from baseline to Week 12 endpoint; • Percent change in very low-density lipoprotein TG from baseline to Week 12; • Percent changes in apolipoprotein A-I (apo A-I), apolipoprotein B (apo B), and apo A-I/apo B ratio from baseline to Week 12; • Percent changes in lipoprotein(a) from baseline to Week 12; • Percent changes in LDL particle number and size, measured by nuclear magnetic resonance, from baseline to Week 12; • Percent change in remnant-like particle cholesterol from baseline to Week 12; • Percent change in oxidized LDL from baseline to Week 12; • Changes in FPG and HbA1c from baseline to Week 12; • Change in insulin resistance, as assessed by the homeostasis model index insulin resistance, from baseline to Week 12; • Percent change in lipoprotein associated phospholipase A2 (Lp-PLA2) from baseline to Week 12; • Change in intracellular adhesion molecule-1 from baseline to Week 12; • Change in interleukin-2 from baseline to Week 12; • Change in plasminogen activator inhibitor-1 from baseline to Week 12. […]
# [4] = Safety and tolerability in the phase 1 IPE pharmacokinetic study
# Source text: The safety population was defined as all randomized subjects who received at least one dose of study drug. The per-protocol population was defined as all safety population subjects who completed the 28-day treatment period without any major protocol deviations, and who provided blood samples for EPA analyses.
# Safety assessments consisted of adverse event (AE) monitoring, clinical laboratory measurements (chemistry, hematology, and urinalysis) 12-lead electrocardiographic measurements, vital signs (systolic and diastolic blood pressure, heart rate, respiratory rate, and oral body temperature) and physical examination findings.
smiles,measurement,setting,value
"CC/C=C\C/C=C\C/C=C\C/C=C\C/C=C\CCCC(=O)OCC [IPE, ethyl eicosapentaenoate]",dose linearity of exposure (dose-normalized AUC and maximum concentration),"[1]; IPE 2 g/day vs 4 g/day (Group 1 vs Group 2), total plasma, total RBCs, unesterified EPA",Dose linearity was observed; also recorded: dose-proportional
same,effect of gender on exposure parameters,[1]; in vivo,no consistent gender effect was observed
same,comparison of exposure between QD and BID regimens,"[1]; same daily dose 2 g, Group 1 vs Group 3",similarity between QD and BID regimens
same,comparison of exposure between 500-mg and 1000-mg formulations,"[1]; same daily dose 2 g, Group 1 vs Group 4",comparable exposures at comparable doses
same,ICAM-1 median placebo-adjusted % change from baseline,[2]; AMR101 2 g/day vs placebo,−2.3%
same,IL-6 median placebo-adjusted % change from baseline,[2]; AMR101 2 g/day vs placebo,4.7%
same,Lp-PLA2 median placebo-adjusted % change from baseline,[2]; AMR101 2 g/day vs placebo,−5.1%
same,Ox-LDL median placebo-adjusted % change from baseline,[2]; AMR101 2 g/day vs placebo,−3.0%
same,hsCRP median placebo-adjusted % change from baseline,[2]; AMR101 2 g/day vs placebo,−10.1%
same,ICAM-1 change from baseline,[2]; AMR101 2 g/day,−0.4%
same,ICAM-1 end-of-treatment value,[2]; AMR101 2 g/day,257.5 ng/mL
same,IL-6 change from baseline,[2]; AMR101 2 g/day,3.4%
same,IL-6 end-of-treatment value,[2]; AMR101 2 g/day,3.0 pg/mL
same,Lp-PLA2 change from baseline,[2]; AMR101 2 g/day,−5.1%
same,Lp-PLA2 end-of-treatment value,[2]; AMR101 2 g/day,220.5 ng/mL
same,Ox-LDL change from baseline,[2]; AMR101 2 g/day,0.4%
same,Ox-LDL end-of-treatment value,[2]; AMR101 2 g/day,75.2 U/L
same,hsCRP change from baseline,[2]; AMR101 2 g/day,25.1%
same,hsCRP end-of-treatment value,[2]; AMR101 2 g/day,2.4 mg/L
same,ICAM-1 median placebo-adjusted % change from baseline,[2]; AMR101 4 g/day vs placebo,−2.5%
same,IL-6 median placebo-adjusted % change from baseline,[2]; AMR101 4 g/day vs placebo,11.0%
same,Lp-PLA2 median placebo-adjusted % change from baseline,[2]; AMR101 4 g/day vs placebo,−13.6%
same,Ox-LDL median placebo-adjusted % change from baseline,[2]; AMR101 4 g/day vs placebo,−6.4%
same,hsCRP median placebo-adjusted % change from baseline,[2]; AMR101 4 g/day vs placebo,−36.0%
same,ICAM-1 change from baseline,[2]; AMR101 4 g/day,−0.9%
same,ICAM-1 end-of-treatment value,[2]; AMR101 4 g/day,253.0 ng/mL
same,IL-6 change from baseline,[2]; AMR101 4 g/day,0.3%
same,IL-6 end-of-treatment value,[2]; AMR101 4 g/day,2.4 pg/mL
same,Lp-PLA2 change from baseline,[2]; AMR101 4 g/day,−17.1%
same,Lp-PLA2 end-of-treatment value,[2]; AMR101 4 g/day,201.0 ng/mL
same,Ox-LDL change from baseline,[2]; AMR101 4 g/day,−3.0%
same,Ox-LDL end-of-treatment value,[2]; AMR101 4 g/day,74.8 U/L
same,hsCRP change from baseline,[2]; AMR101 4 g/day,−2.5%
same,hsCRP end-of-treatment value,[2]; AMR101 4 g/day,2.2 mg/L
same,ICAM-1 median placebo-adjusted % change from baseline,[3]; AMR101 2 g/day vs placebo,−2.2%
same,IL-6 median placebo-adjusted % change from baseline,[3]; AMR101 2 g/day vs placebo,7.0%
same,Lp-PLA2 median placebo-adjusted % change from baseline,[3]; AMR101 2 g/day vs placebo,−8.0%
same,Ox-LDL median placebo-adjusted % change from baseline,[3]; AMR101 2 g/day vs placebo,−5.8%
same,hsCRP median placebo-adjusted % change from baseline,[3]; AMR101 2 g/day vs placebo,−6.8%
same,ICAM-1 change from baseline,[3]; AMR101 2 g/day,0.5%
same,ICAM-1 end-of-treatment value,[3]; AMR101 2 g/day,268.5 ng/mL
same,IL-6 change from baseline,[3]; AMR101 2 g/day,6.9%
same,IL-6 end-of-treatment value,[3]; AMR101 2 g/day,2.7 pg/mL
same,Lp-PLA2 change from baseline,[3]; AMR101 2 g/day,−1.8%
same,Lp-PLA2 end-of-treatment value,[3]; AMR101 2 g/day,183.5 ng/mL
same,Ox-LDL change from baseline,[3]; AMR101 2 g/day,2.6%
same,Ox-LDL end-of-treatment value,[3]; AMR101 2 g/day,55.8 U/L
same,hsCRP change from baseline,[3]; AMR101 2 g/day,10.3%
same,hsCRP end-of-treatment value,[3]; AMR101 2 g/day,2.5 mg/L
same,ICAM-1 median placebo-adjusted % change from baseline,[3]; AMR101 4 g/day vs placebo,−2.4%
same,IL-6 median placebo-adjusted % change from baseline,[3]; AMR101 4 g/day vs placebo,−1.0%
same,Lp-PLA2 median placebo-adjusted % change from baseline,[3]; AMR101 4 g/day vs placebo,−19.0%
same,Ox-LDL median placebo-adjusted % change from baseline,[3]; AMR101 4 g/day vs placebo,−13.3%
same,hsCRP median placebo-adjusted % change from baseline,[3]; AMR101 4 g/day vs placebo,−22.0%
same,ICAM-1 change from baseline,[3]; AMR101 4 g/day,0.8%
same,ICAM-1 end-of-treatment value,[3]; AMR101 4 g/day,270.0 ng/mL
same,IL-6 change from baseline,[3]; AMR101 4 g/day,3.1%
same,IL-6 end-of-treatment value,[3]; AMR101 4 g/day,2.6 pg/mL
same,Lp-PLA2 change from baseline,[3]; AMR101 4 g/day,−12.8%
same,Lp-PLA2 end-of-treatment value,[3]; AMR101 4 g/day,160.0 ng/mL
same,Ox-LDL change from baseline,[3]; AMR101 4 g/day,−4.8%
same,Ox-LDL end-of-treatment value,[3]; AMR101 4 g/day,51.4 U/L
same,hsCRP change from baseline,[3]; AMR101 4 g/day,−2.4%
same,hsCRP end-of-treatment value,[3]; AMR101 4 g/day,2.0 mg/L
same,subjects reporting at least one adverse event,"[4]; Group 1, IPE 2 g daily, 1000-mg capsules BID",25.0%
same,subjects reporting at least one adverse event,"[4]; Group 2, IPE 4 g daily, 1000-mg capsules BID",33.3%
same,subjects reporting at least one adverse event,"[4]; Group 3, IPE 2 g daily, 1000-mg capsules QD",25.0%
same,subjects reporting at least one adverse event,"[4]; Group 4, IPE 2 g daily, 500-mg capsules BID",33.3%
same,"changes in laboratory, electrocardiographic, or physical examination findings",[4]; all groups,no clinically meaningful changes
same,intensity of adverse events,[4]; all groups,mild or moderate in intensity
same,subjects reporting at least one adverse event,"[4]; all groups, safety population n = 48",29.2%

# Source: US20140221676A1, “COMPOSITIONS AND METHODS FOR TREATING AND/OR PREVENTING CARDIOVASCULAR DISEASE” (Amarin Pharmaceuticals Ireland Limited, priority 2013, published 2014)
